{"source": "patent US7041169B2", "about": "“Methods of generating and screening for high free energy forms in capillaries” (S.S.C.I., Inc., priority 2000, dated 2006)", "type_in_all_cases": "physicochemical", "key": {"[1]": {"assay": "Solubility of ROY in ethanol", "conditions": "25 °C, organic solvent or mixture, 25 degrees C", "experimental": "For this example, a solution of ROY in ethanol was prepared. A supersaturated solution of 160.3 mg of ROY in 2 mL of ethanol was prepared, having a supersaturation ratio of 6.7."}, "[2]": {"assay": "Solubility of ROY in water"}, "[3]": {"assay": "Solidification of WAY from supersaturated ethanol solution in 95 capillary tubes (Example 5)", "experimental": "A supersaturated solution of WAY in ethanol was prepared, having a supersaturation ratio of 2. The WAY solution was introduced into 95 capillary tubes. The tubes were left open at both ends and allowed to evaporate to the atmosphere. After about 25 minutes, sixty-two capillary tubes contained crystals. […] After about one hour, four additional capillary tubes contained white crystals, nine additional capillary tubes contained yellow crystals, and one additional capillary tube contained a mixture of white and yellow crystals."}, "[4]": {"assay": "Solidification of WAY from ethanol and aqueous ethanol in capillary tubes at different temperatures (Example 6, Table 1)", "experimental": "For this example, solutions of the WAY compound were prepared at a supersaturation ratio of 2 in ethanol and in 10% aqueous ethanol. Each of these WAY solutions was introduced into twenty capillary tubes having a stated inner diameter of 0.5–0.6 mm and which had been washed by soaking in distilled water for about 10 minutes, rinsing with ethanol, and drying for at least an hour at 65 degrees C. The capillary tubes were maintained at room temperature and pressure (about 23 degrees C. and at about 45% relative humidity) and were observed periodically.\nSolidification of the WAY compound from ethanol and aqueous ethanol solutions was also done at different temperatures (reported below in degrees Celsius). Table 1 summarizes the results of seven sets of twenty capillary tubes under set different sets of conditions."}}, "note": "Entries after “also recorded” stand apart in the source; their conditions may differ.", "data": [{"smiles": "Cc1cc(C#N)c(Nc2ccccc2[N+](=O)[O-])s1", "note": "[ROY, 5-methyl-2-[(2-nitrophenyl)amino]-3-thiophenecarbonitrile]", "values": [{"measurement": "solubility", "setting": "[1]", "result": "~12", "unit": "mg/mL"}, {"measurement": "solubility in water", "setting": "[2]", "result": "generally insoluble in water"}]}, {"smiles": "CC(=O)Nc1ccc(C)cc1[N+](=O)[O-]", "note": "[WAY, 4-methyl-2-nitro-acetanilide]", "values": [{"measurement": "solid forms found in capillary tubes", "setting": "[3]; after about 25 minutes, 95 tubes, sixty-two with crystals", "result": "forty contained white crystals; also recorded: twenty-two contained yellow crystals"}, {"measurement": "persistence of high free energy yellow crystals in capillary tubes", "setting": "[3]; overnight (about thirteen hours and forty minutes), room temperature", "result": "nineteen of those tubes had transformed to white crystals; also recorded: six still contained yellow crystals"}, {"measurement": "Result (solid forms in 20 capillary tubes)", "setting": "[4]; Solvent Aqueous ethanol, Temp 38 degrees Celsius, Time 0:50, tubes with mixed yellow and white crystals", "result": "2/20: mixture of yellow"}, {"measurement": "Result (solid forms in 20 capillary tubes)", "setting": "[4]; Solvent Aqueous ethanol, Temp 38 degrees Celsius, Time 0:50, tubes with no solids formed", "result": "18/20: no solids formed"}, {"measurement": "Result (solid forms in 20 capillary tubes)", "setting": "[4]; Solvent Aqueous ethanol, Temp 38 degrees Celsius, Time 1:13, tubes with mixed yellow and white crystals", "result": "5/20: mixture of yellow"}, {"measurement": "Result (solid forms in 20 capillary tubes)", "setting": "[4]; Solvent Aqueous ethanol, Temp 38 degrees Celsius, Time 1:13, tubes with no solids formed", "result": "15/20: no solids formed"}, {"measurement": "Result (solid forms in 20 capillary tubes)", "setting": "[4]; Solvent Aqueous ethanol, Temp 38 degrees Celsius, Time 1:42, tubes with mixed yellow and white crystals", "result": "19/20: mixture of yellow"}, {"measurement": "Result (solid forms in 20 capillary tubes)", "setting": "[4]; Solvent Aqueous ethanol, Temp 38 degrees Celsius, Time 1:42, tubes with no solids formed", "result": "1/20: no solids formed"}, {"measurement": "Result (solid forms in 20 capillary tubes)", "setting": "[4]; Solvent Aqueous ethanol, Temp −2 degrees Celsius, Time 4:35, tubes with white crystals", "result": "1/20: white crystals"}, {"measurement": "Result (solid forms in 20 capillary tubes)", "setting": "[4]; Solvent Aqueous ethanol, Temp −2 degrees Celsius, Time 4:35, tubes with yellow crystals", "result": "19/20: yellow crystals"}, {"measurement": "Result (solid forms in 20 capillary tubes)", "setting": "[4]; Solvent Ethanol, Temp 38 degrees Celsius, Time 0:50, tubes with mixed white and yellow crystals", "result": "16/20: mixture of white"}, {"measurement": "Result (solid forms in 20 capillary tubes)", "setting": "[4]; Solvent Ethanol, Temp 38 degrees Celsius, Time 0:50, tubes with no solids formed", "result": "4/20: no solids formed"}, {"measurement": "Result (solid forms in 20 capillary tubes)", "setting": "[4]; Solvent Ethanol, Temp 38 degrees Celsius, Time 1:43, tubes with mixed yellow and white crystals", "result": "17/20: mixture of yellow"}, {"measurement": "Result (solid forms in 20 capillary tubes)", "setting": "[4]; Solvent Ethanol, Temp 38 degrees Celsius, Time 1:43, tubes with no solids formed", "result": "3/20: no solids formed"}, {"measurement": "Result (solid forms in 20 capillary tubes)", "setting": "[4]; Solvent Ethanol, Temp −2 degrees Celsius, Time 4, tubes with white and yellow crystals", "result": "2/20: white and yellow"}, {"measurement": "Result (solid forms in 20 capillary tubes)", "setting": "[4]; Solvent Ethanol, Temp −2 degrees Celsius, Time 4, tubes with white crystals", "result": "10/20: white crystals"}]}]}
